Each molecule was assayed on IFNα-induced STAT phosphorylation (pSTAT5) in human whole blood (assay: IFNα-Induced STAT Phosphorylation in Human Whole Blood). Conditions: 1 h incubation with compound, 1000 U/mL recombinant human IFNα A/D for 15 min, pSTAT5 in CD3 positive population, read-out: IFNα-Induced Stat Phosph. (IC50).
Format: cell-based
Method: IFNα-Induced STAT Phosphorylation in Human Whole Blood
After an hour long incubation with compound, human whole blood (drawn with either EDTA or ACD-A as anti-coagulant) was stimulated with 1000 U/mL recombinant human IFNα A/D (R&D Systems 11200-2) for 15 min. The stimulation was stopped by adding Fix/Lyse buffer (BD 558049). Cells were stained with a CD3 FITC antibody (BD 555916), washed, and permeabilized on ice using Perm III buffer (BD 558050). Cells were then stained with an Alexa-Fluor 647 pSTAT5 (pY694) antibody (BD 612599) for 30 min prior to analysis on the FACS Canto II. The amount of pSTAT5 expression was quantitated by median fluorescence intensity after gating on the CD3 positive population.

Q: CNC(=O)c1nnc(NC(=O)C2CC(F)C2)cc1Nc1ncccc1S(C)(=O)=O (single isomer, unassigned) [Example 125] was tested. Which IC50 did it give?
A: 272 nM

Q: For CNC(=O)c1nnc(NC(=O)C2CC(F)C2)cc1Nc1ncccc1S(C)(=O)=O (single isomer, unassigned) [Example 126], which IC50 is on record?
A: 343 nM

Q: How did the IC50 turn out when CNC(=O)c1nnc(Nc2ccc(OC)cn2)cc1Nc1ncccc1S(C)(=O)=O [Example 2] was run?
A: 26 nM

Q: Which IC50 does the source give for CNC(=O)c1nnc(Nc2cc(F)ccn2)cc1Nc1ncccc1S(C)(=O)=O [Example 4] here?
A: 32 nM

Q: Which IC50 does the source give for CNC(=O)c1nnc(Nc2cccc(F)n2)cc1Nc1ncccc1S(C)(=O)=O [Example 5] here?
A: 13 nM

Q: How did the IC50 turn out when CNC(=O)c1nnc(Nc2ccc(OC)nn2)cc1Nc1ncccc1S(C)(=O)=O [Example 7] was run?
A: 42 nM

Q: For CCC(=O)Nc1cc(Nc2ncccc2S(C)(=O)=O)c(C(=O)NC)nn1 [Example 8], which IC50 is on record?
A: 49 nM

Q: CNC(=O)c1nnc(NC(=O)C2CCC2)cc1Nc1ncccc1S(C)(=O)=O [Example 9] was tested. Which IC50 did it give?
A: 77 nM

Q: For CNC(=O)c1nnc(Nc2ccc(C)cn2)cc1Nc1ncccc1S(C)(=O)=O [Example 10], which IC50 is on record?
A: 21 nM

Q: How did the IC50 turn out when CNC(=O)c1nnc(Nc2cc(C#N)n(C)n2)cc1Nc1ncccc1S(C)(=O)=O [Example 12] was run?
A: 38 nM

Q: CNC(=O)c1nnc(Nc2cc(C3CC3)ncn2)cc1Nc1ncccc1S(C)(=O)=O [Example 14] was tested. Which IC50 did it give?
A: 11 nM

Q: For CNC(=O)c1nnc(Nc2ccc(C3CC3)nn2)cc1Nc1ncccc1S(C)(=O)=O [Example 15], which IC50 is on record?
A: 13 nM

Q: CNC(=O)c1nnc(Nc2ccc(F)nc2)cc1Nc1ncccc1S(C)(=O)=O [Example 16] was tested. Which IC50 did it give?
A: 1430 nM

Q: With CNC(=O)c1nnc(Nc2cc(C)n(C)n2)cc1Nc1ncccc1S(C)(=O)=O [Example 17] as the molecule, how does the IC50 read?
A: 18 nM

Q: How did the IC50 turn out when CNC(=O)c1nnc(Nc2ccc(C(F)(F)F)nn2)cc1Nc1ncccc1S(C)(=O)=O [Example 19] was run?
A: 44 nM

Q: With CNC(=O)c1nnc(Nc2ccn(CC(F)F)n2)cc1Nc1ncccc1S(C)(=O)=O [Example 20] as the molecule, how does the IC50 read?
A: 47 nM

Q: Which IC50 does the source give for CNC(=O)c1nnc(Nc2ccnc(OC)n2)cc1Nc1ncccc1S(C)(=O)=O [Example 21] here?
A: 37 nM

Q: CNC(=O)c1nnc(Nc2cc(C(C)(C)O)c(F)cn2)cc1Nc1ncccc1S(C)(=O)=O [Example 22] was tested. Which IC50 did it give?
A: 31 nM

Q: With CNC(=O)c1nnc(NC2CC2)cc1Nc1ncccc1S(C)(=O)=O [Example 23] as the molecule, how does the IC50 read?
A: 2140 nM

Q: Which IC50 does the source give for CNC(=O)c1nnc(Nc2ccc(C(C)(C)N)cn2)cc1Nc1ncccc1S(C)(=O)=O [Example 24] here?
A: 9 nM

Q: With CNC(=O)c1nnc(Nc2ccc(C(C)(C)NC(C)=O)cn2)cc1Nc1ncccc1S(C)(=O)=O [Example 25] as the molecule, how does the IC50 read?
A: 15 nM

Q: CNC(=O)c1nnc(Nc2ccn(CC(F)(F)F)n2)cc1Nc1ncccc1S(C)(=O)=O [Example 26] was tested. Which IC50 did it give?
A: 49 nM

Q: CNC(=O)c1nnc(Nc2cc(C(F)(F)F)ncn2)cc1Nc1ncccc1S(C)(=O)=O [Example 27] was tested. Which IC50 did it give?
A: 88 nM

Q: How did the IC50 turn out when CNC(=O)c1nnc(Nc2ccc(OC)nn2)cc1Nc1ncccc1S(C)(=O)=O [Example 28] was run?
A: 28 nM

Q: Which IC50 does the source give for CNC(=O)c1nnc(Nc2cc(C(C)(C)O)c(Cl)cn2)cc1Nc1ncccc1S(C)(=O)=O [Example 29] here?
A: 92 nM

Q: CNC(=O)c1nnc(Nc2cc3ccc(C(C)(C)O)cc3cn2)cc1Nc1ncccc1S(C)(=O)=O [Example 30] was tested. Which IC50 did it give?
A: 57 nM

Q: With CNC(=O)c1nnc(Nc2cc(C(F)(F)F)c(C(C)(C)O)cn2)cc1Nc1ncccc1S(C)(=O)=O [Example 31] as the molecule, how does the IC50 read?
A: 31 nM

Q: For CNC(=O)c1nnc(Nc2ccc(C3(C#N)CC3)cn2)cc1Nc1ncccc1S(C)(=O)=O [Example 33], which IC50 is on record?
A: 18 nM

Q: CNC(=O)c1nnc(Nc2cc(N(C)C)ncn2)cc1Nc1ncccc1S(C)(=O)=O [Example 34] was tested. Which IC50 did it give?
A: 115 nM

Q: CNC(=O)c1nnc(Nc2cc(N3CCC3)ncn2)cc1Nc1ncccc1S(C)(=O)=O [Example 35] was tested. Which IC50 did it give?
A: 90 nM

Q: For CNC(=O)c1nnc(Nc2cc(OC)c(C(C)(C)O)cn2)cc1Nc1ncccc1S(C)(=O)=O [Example 36], which IC50 is on record?
A: 22 nM

Q: For CNC(=O)c1nnc(Nc2cnc(C3CC3)cn2)cc1Nc1ncccc1S(C)(=O)=O [Example 37], which IC50 is on record?
A: 26 nM

Q: With CNC(=O)c1nnc(Nc2ccc(N(C)C)nn2)cc1Nc1ncccc1S(C)(=O)=O [Example 38] as the molecule, how does the IC50 read?
A: 18 nM

Q: Which IC50 does the source give for CCc1cnc(Nc2cc(Nc3ncccc3S(C)(=O)=O)c(C(=O)NC)nn2)cn1 [Example 39] here?
A: 15 nM

Q: How did the IC50 turn out when CNC(=O)c1nnc(Nc2ccnc(C3CC3)n2)cc1Nc1ncccc1S(C)(=O)=O [Example 40] was run?
A: 18 nM

Q: For CNC(=O)c1nnc(Nc2cc(C3CC3)nc(COC)n2)cc1Nc1ncccc1S(C)(=O)=O [Example 41], which IC50 is on record?
A: 24 nM

Q: CNC(=O)c1nnc(Nc2cnc(COC)cn2)cc1Nc1ncccc1S(C)(=O)=O [Example 42] was tested. Which IC50 did it give?
A: 15 nM

Q: For CNC(=O)c1nnc(NC(=O)[C@@H]2C[C@H]2F)cc1Nc1ncccc1S(C)(=O)=O [Example 43], which IC50 is on record?
A: 26 nM

Q: How did the IC50 turn out when CNC(=O)c1nnc(NC(=O)[C@@H]2C[C@@H]2F)cc1Nc1ncccc1S(C)(=O)=O [Example 44] was run?
A: 14 nM

Q: Which IC50 does the source give for CNC(=O)c1nnc(NC(=O)C2CC2(F)F)cc1Nc1ncccc1S(C)(=O)=O (stereo not shown) [Example 45] here?
A: 34 nM

Q: CNC(=O)c1nnc(NC(=O)[C@@H]2C[C@H]2C)cc1Nc1ncccc1S(C)(=O)=O [Example 46] was tested. Which IC50 did it give?
A: 53 nM

Q: CNC(=O)c1nnc(NC(=O)C2CC23CC3)cc1Nc1ncccc1S(C)(=O)=O (stereo not shown) [Example 47] was tested. Which IC50 did it give?
A: 48 nM

Q: CNC(=O)c1nnc(NC(=O)[C@@H]2C[C@@H]2C)cc1Nc1ncccc1S(C)(=O)=O [Example 48] was tested. Which IC50 did it give?
A: 40 nM

Q: With CNC(=O)c1nnc(NC(=O)[C@H]2C[C@@H]2C)cc1Nc1ncccc1S(C)(=O)=O [Example 49] as the molecule, how does the IC50 read?
A: 58 nM

Q: Which IC50 does the source give for CNC(=O)c1nnc(Nc2cc(C(F)(F)F)c(C(=O)N(C)C)cn2)cc1Nc1ncccc1S(C)(=O)=O [Example 50] here?
A: 30 nM

Q: With CNC(=O)c1nnc(Nc2cnn(C)n2)cc1Nc1ncccc1S(C)(=O)=O [Example 51] as the molecule, how does the IC50 read?
A: 29 nM

Q: With CNC(=O)c1nnc(Nc2cc(C(F)(F)F)c(C(=O)N(C)C3CC3)cn2)cc1Nc1ncccc1S(C)(=O)=O [Example 52] as the molecule, how does the IC50 read?
A: 92 nM

Q: With CNC(=O)c1nnc(Nc2cn(C)nn2)cc1Nc1ncccc1S(C)(=O)=O [Example 53] as the molecule, how does the IC50 read?
A: 132 nM

Q: With CNC(=O)c1nnc(Nc2cn(C3CC3)nn2)cc1Nc1ncccc1S(C)(=O)=O [Example 56] as the molecule, how does the IC50 read?
A: 18 nM

Q: CCCn1cc(Nc2cc(Nc3ncccc3S(C)(=O)=O)c(C(=O)NC)nn2)nn1 [Example 57] was tested. Which IC50 did it give?
A: 59 nM

Q: How did the IC50 turn out when CNC(=O)c1nnc(Nc2cc(C)on2)cc1Nc1ncccc1S(C)(=O)=O [Example 58] was run?
A: 24 nM

Q: For CNC(=O)c1nnc(Nc2cc(C3CC3)c(C#N)cn2)cc1Nc1ncccc1S(C)(=O)=O [Example 59], which IC50 is on record?
A: 219 nM

Q: CNC(=O)c1nnc(Nc2cc(C)nc(C3CC3)n2)cc1Nc1ncccc1S(C)(=O)=O [Example 61] was tested. Which IC50 did it give?
A: 18 nM

Same assay, conditions: Homo sapiens, 1 h incubation with compound, 1000 U/mL recombinant human IFNα A/D for 15 min, pSTAT5 in CD3 positive population, read-out: IFNα-Induced Stat Phosph. (IC50)

Q: With [2H]C([2H])([2H])NC(=O)c1nnc(Nc2ccc(F)cn2)cc1Nc1ncccc1S(C)(=O)=O [Example 1, 6-((5-fluoropyridin-2-yl)amino)-N-(methyl-d3)-4-((3-(methylsulfonyl)pyridin-2-yl)amino)pyridazine-3-carboxamide] as the molecule, how does the IC50 read?
A: 12 nM

Q: For [2H]C([2H])([2H])NC(=O)c1nnc(Nc2ccc(C(C)(C)O)cn2)cc1Nc1ncccc1S(C)(=O)=O [Example 13, 6-((5-(2-hydroxypropan-2-yl)pyridin-2-yl)amino)-N-(methyl-d3)-4-((3-(methylsulfonyl)pyridin-2-yl)amino)pyridazine-3-carboxamide], which IC50 is on record?
A: 2 nM

Source: patent US12365667B2, “Sulfone pyridine alkyl amide-substituted heteroaryl compounds” (BRISTOL-MYERS SQUIBB COMPANY, priority 2017, dated 2025)
